Laboratory results as given in article PMC12136037, “Type II kinase inhibitors that target Parkinson’s disease–associated LRRK2” (Science Advances, 2025).
pEC50: −log10 of the molar value. Several values for one entry are separate records, joined by “and”; a condition that tells them apart may be missing. Equal entries are not always repeated. Where two headings read alike, the source gives them in different places.

What was measured:
TTK = biological target: T1, TTK (Homo sapiens, UniProt P33981); test: nanoBRET off-target validation; assay type: cell-based
T1 construct: host or cells: HEK293T (ATCC CRL-3216)
T1 sequence (P33981 1-857): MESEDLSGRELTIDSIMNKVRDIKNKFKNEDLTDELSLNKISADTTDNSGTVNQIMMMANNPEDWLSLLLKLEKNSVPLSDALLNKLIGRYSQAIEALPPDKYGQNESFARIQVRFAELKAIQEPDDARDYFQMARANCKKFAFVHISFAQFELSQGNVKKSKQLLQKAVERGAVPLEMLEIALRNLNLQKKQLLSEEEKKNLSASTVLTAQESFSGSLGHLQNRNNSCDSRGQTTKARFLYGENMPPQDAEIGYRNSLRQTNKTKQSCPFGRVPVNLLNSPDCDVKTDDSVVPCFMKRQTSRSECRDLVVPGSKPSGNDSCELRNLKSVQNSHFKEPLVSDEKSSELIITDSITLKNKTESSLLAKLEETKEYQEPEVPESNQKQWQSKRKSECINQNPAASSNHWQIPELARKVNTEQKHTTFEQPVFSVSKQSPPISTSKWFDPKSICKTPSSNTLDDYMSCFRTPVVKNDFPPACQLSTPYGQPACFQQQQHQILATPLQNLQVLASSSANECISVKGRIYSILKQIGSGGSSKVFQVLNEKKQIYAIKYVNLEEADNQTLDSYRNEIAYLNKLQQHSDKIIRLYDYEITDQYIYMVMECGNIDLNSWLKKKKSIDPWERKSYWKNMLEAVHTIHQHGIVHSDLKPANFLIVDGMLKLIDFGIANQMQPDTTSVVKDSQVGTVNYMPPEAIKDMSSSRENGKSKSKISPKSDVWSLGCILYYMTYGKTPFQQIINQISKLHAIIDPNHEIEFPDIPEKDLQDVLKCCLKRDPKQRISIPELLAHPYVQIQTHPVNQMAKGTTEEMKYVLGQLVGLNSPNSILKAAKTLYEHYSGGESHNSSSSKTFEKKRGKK
Experimental: (§1) The assay was performed as described previously ([61]). In brief, full-length kinases as listed in table S6 were obtained as plasmids cloned in frame with terminal NanoLuc-fusion (gift from Promega; table S6). […] Serially diluted inhibitor and corresponding tracer as listed in table S6 at the Tracer KD concentration taken from TracerDB (tracerdb.org) ([62]) were pipetted into white 384-well plates (Greiner, 781207) using an ECHO acoustic dispenser (Labcyte). The corresponding protein-transfected cells were added and reseeded at a density of 2 × 10^5 cells/ml after trypsinization and resuspending in Opti-MEM without phenol red (Life Technologies). The system was allowed to equilibrate for 3 hours at 37°C/5% CO2 before bioluminescence resonance energy transfer (BRET) measurements. To measure BRET, NanoBRET NanoGlo Substrate + extracellular NanoLuc Inhibitor (Promega, N2540) was added as per the manufacturer’s protocol, and filtered luminescence was measured on a PHERAstar plate reader (BMG Labtech) equipped with a luminescence filter pair [450-nm BP filter (donor) and 610-nm LP filter (acceptor)]. […] (For step-by-step protocol, see www.eubopen.org/sites/www.eubopen.org/files/attachments/2021/NanoBRET-IC50_v1_0.pdf.)

MAPK14 = biological target: T2, MAPK14 (Homo sapiens, UniProt Q16539); test: nanoBRET off-target validation; assay type: cell-based
T2 construct: host or cells: HEK293T (ATCC CRL-3216)
Experimental: as §1

[1] = in cellulo nanoBRET, 293T cells

T2 sequence (Q16539 whole entry): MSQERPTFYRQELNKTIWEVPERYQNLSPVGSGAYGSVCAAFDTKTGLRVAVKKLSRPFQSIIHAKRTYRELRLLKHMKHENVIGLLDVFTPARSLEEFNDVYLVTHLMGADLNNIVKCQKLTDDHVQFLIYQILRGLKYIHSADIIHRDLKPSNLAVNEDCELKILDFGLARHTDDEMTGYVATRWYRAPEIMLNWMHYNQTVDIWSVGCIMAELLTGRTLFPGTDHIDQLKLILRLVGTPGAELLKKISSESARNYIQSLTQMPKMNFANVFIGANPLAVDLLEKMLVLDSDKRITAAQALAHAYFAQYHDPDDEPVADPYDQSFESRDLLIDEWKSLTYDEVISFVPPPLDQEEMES

Structure (SMILES): CCSc1nc(NC)c2c(-c3cccc(NC(=O)Nc4cc(C(C)(C)C)nn4-c4ccc(C)cc4)c3)c[nH]c2n1 [Compound 32]
- remaining activity at 0.5 µM (TTK; TTK, inhibitor 500 nM, two replicates, read-out: nanoBRET response normalized to 0% (no tracer) and 100% (no inhibitor) control): 61.5%
- nanoBRET response normalized to 0% (no tracer) and 100% (no inhibitor) control (TTK; TTK, inhibitor 2500 nM, two replicates, listed as RN341, […]): 72.9908%
- remaining activity at […] (TTK; TTK, inhibitor 2500 nM, two replicates, read-out: nanoBRET response normalized to 0% (no tracer) and 100% (no inhibitor) control): 70.3%
- nanoBRET response normalized to 0% (no tracer) and 100% (no inhibitor) control (TTK; TTK, inhibitor 5000 nM, two replicates, listed as RN341, 5 µM): 54.1735%
- remaining activity at 5 µM (TTK; TTK, inhibitor 5000 nM, two replicates, read-out: nanoBRET response normalized to 0% (no tracer) and 100% (no inhibitor) control): 40.9%
- nanoBRET response normalized to 0% (no tracer) and 100% (no inhibitor) control (TTK; TTK, inhibitor 25000 nM, two replicates, listed as RN341, 25 µM): 18.6146%
- remaining activity at 25 µM (TTK; TTK, inhibitor 25000 nM, two replicates, read-out: nanoBRET response normalized to 0% (no tracer) and 100% (no inhibitor) control): 14.2%
- pEC50 (TTK; [1]): > 5.30 and 5.49
- nanoBRET response normalized to 0% (no tracer) and 100% (no inhibitor) control (MAPK14; MAPK14, inhibitor 8 nM, two replicates, listed as RN341, 0.008 µM): 98.3554%
- remaining activity at 0.008 µM (MAPK14; MAPK14, inhibitor 8 nM, two replicates, read-out: nanoBRET response normalized to 0% (no tracer) and 100% (no inhibitor) control): 100%
- nanoBRET response normalized to 0% (no tracer) and 100% (no inhibitor) control (MAPK14; MAPK14, inhibitor 16 nM, two replicates, listed as RN341, 0.016 µM): 103.532%
- remaining activity at 0.016 µM (MAPK14; MAPK14, inhibitor 16 nM, two replicates, read-out: nanoBRET response normalized to 0% (no tracer) and 100% (no inhibitor) control): 96.2%
- nanoBRET response normalized to 0% (no tracer) and 100% (no inhibitor) control (MAPK14; MAPK14, inhibitor 50 nM, two replicates, listed as RN341, 0.05 µM): 95.4254%
- remaining activity at 0.05 µM (MAPK14; MAPK14, inhibitor 50 nM, two replicates, read-out: nanoBRET response normalized to 0% (no tracer) and 100% (no inhibitor) control): 90.1%
- nanoBRET response normalized to 0% (no tracer) and 100% (no inhibitor) control (MAPK14; MAPK14, inhibitor 250 nM, two replicates, listed as RN341, […]): 83.4876%
- remaining activity at […] (MAPK14; MAPK14, inhibitor 250 nM, two replicates, read-out: nanoBRET response normalized to 0% (no tracer) and 100% (no inhibitor) control): 73.2%
- nanoBRET response normalized to 0% (no tracer) and 100% (no inhibitor) control (MAPK14; MAPK14, inhibitor 500 nM, two replicates, listed as RN341, 0.5 µM): 52.7705%
- remaining activity at 0.5 µM (MAPK14; MAPK14, inhibitor 500 nM, two replicates, read-out: nanoBRET response normalized to 0% (no tracer) and 100% (no inhibitor) control): 57.4%
- nanoBRET response normalized to 0% (no tracer) and 100% (no inhibitor) control (MAPK14; MAPK14, inhibitor 2500 nM, two replicates, listed as RN341, […]): 49.0355%
- remaining activity at […] (MAPK14; MAPK14, inhibitor 2500 nM, two replicates, read-out: nanoBRET response normalized to 0% (no tracer) and 100% (no inhibitor) control): 48.5%
- nanoBRET response normalized to 0% (no tracer) and 100% (no inhibitor) control (MAPK14; MAPK14, inhibitor 5000 nM, two replicates, listed as RN341, 5 µM): 40.5445%
- remaining activity at 5 µM (MAPK14; MAPK14, inhibitor 5000 nM, two replicates, read-out: nanoBRET response normalized to 0% (no tracer) and 100% (no inhibitor) control): 48.2%
- nanoBRET response normalized to 0% (no tracer) and 100% (no inhibitor) control (MAPK14; MAPK14, inhibitor 25000 nM, two replicates, listed as RN341, 25 µM): 17.1717%
- remaining activity at 25 µM (MAPK14; MAPK14, inhibitor 25000 nM, two replicates, read-out: nanoBRET response normalized to 0% (no tracer) and 100% (no inhibitor) control): 25.4%
- pEC50 (MAPK14; [1]): > 5.30 and 5.77
